Broadly, the Kd is a measure of binding affinity in units of concentration. The term IC50 denotes the concentration that inhibits the measured activity by half.

SMILES strings stand for the structures.

Experiment [1] concerns the target T1, E-selectin (Homo sapiens, UniProt P16581).
T1 sequence (P16581 whole entry): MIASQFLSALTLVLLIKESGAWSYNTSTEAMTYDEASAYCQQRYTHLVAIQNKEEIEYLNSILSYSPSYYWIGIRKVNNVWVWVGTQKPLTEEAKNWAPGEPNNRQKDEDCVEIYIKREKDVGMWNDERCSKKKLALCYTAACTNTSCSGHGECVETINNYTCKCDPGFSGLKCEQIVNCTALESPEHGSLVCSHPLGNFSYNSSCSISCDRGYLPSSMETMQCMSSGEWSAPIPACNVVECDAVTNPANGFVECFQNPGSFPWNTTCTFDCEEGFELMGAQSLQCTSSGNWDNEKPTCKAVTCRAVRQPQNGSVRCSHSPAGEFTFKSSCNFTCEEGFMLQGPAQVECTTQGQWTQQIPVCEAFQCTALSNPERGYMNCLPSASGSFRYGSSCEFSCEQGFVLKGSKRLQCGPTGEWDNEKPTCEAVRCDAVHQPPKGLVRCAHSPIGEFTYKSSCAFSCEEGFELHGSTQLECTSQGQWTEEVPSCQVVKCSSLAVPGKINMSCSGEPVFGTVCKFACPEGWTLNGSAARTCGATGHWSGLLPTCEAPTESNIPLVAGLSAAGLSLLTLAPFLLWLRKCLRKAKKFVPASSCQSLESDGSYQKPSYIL
Put plainly: Binding affinity to E-selectin SCR2 domain (unknown origin) by isothermal titration calorimetry. (In general: In ITC the heat of successive injections is recorded.)

The nature of experiment [2]: Inhibition of horseradish peroxidase coupled sialyl Lewisa-polyacrylamide polymer binding to human P-selectin/IgG chimera measured after 2 hrs in presence of TMB by colorimetric assay.
Experiment [3] deals with T1, E-selectin. In words: Binding affinity to sialyl LewisX mimetic 21a pretreated Blue-NHS-labelled E-selectin Lec-EGF/SCR1/SCR2 domain (unknown origin) measured after 20 mins by microscale thermophoresis. In general terms: In MST a laser heats a spot of the sample, and binding alters the fluorescence response.

In experiment [1], `C[C@@H]1O[C@@H](O[C@@H]2CCCC[C@H]2O[C@@H]2O[C@H](CO)[C@H](O)[C@H](O[C@@H](CC3CCCCC3)C(=O)O)[C@H]2O)[C@@H](O)[C@H](O)[C@@H]1O` gave a Kd of 60.7 µM.

Regarding `COC(=O)[C@@H]1C[C@H](NC(=O)c2cc(=O)[nH]c(=O)[nH]2)[C@@H](O[C@@H]2O[C@@H](C)[C@@H](O)[C@@H](O)[C@@H]2O)[C@H](O[C@@H]2O[C@H](CO)[C@H](O)[C@H](O[C@@H](CC3CCCCC3)C(=O)O)[C@H]2OC(=O)c2ccccc2)C1`, in experiment [2], the IC50 was determined as 3390 µM. On the same count and under the same terms, next, `CC[C@@H]1[C@@H](O[C@@H]2O[C@@H](C)[C@@H](O)[C@@H](O)[C@@H]2O)[C@H](O[C@@H]2O[C@H](CO)[C@H](O)[C@H](O[C@@H](CC3CCCCC3)C(=O)O)[C@H]2OC(=O)c2ccccc2)CC[C@@H]1C(=O)NCCCc1cn(CCC(=O)Nc2cc(S(=O)(=O)O)cc3cc(S(=O)(=O)O)cc(S(=O)(=O)O)c23)nn1`: 94 µM.

Turning to `C[C@@H]1O[C@@H](O[C@@H]2[C@@H](NC(=O)c3cc(=O)[nH]c(=O)[nH]3)C[C@@H](C(=O)NCCNC(=O)COCCOCC(=O)Nc3cc(S(=O)(=O)O)cc4cc(S(=O)(=O)O)cc(S(=O)(=O)O)c34)C[C@H]2O[C@@H]2O[C@H](CO)[C@H](O)[C@H](O[C@@H](CC3CCCCC3)C(=O)O)[C@H]2OC(=O)c2ccccc2)[C@@H](O)[C@H](O)[C@@H]1O` [RIVIPANSEL], the IC50 in experiment [2] is 423 µM. Regarding `CO[C@@H]1O[C@H](CO)[C@@H](O[C@@H]2O[C@H](CO)[C@H](O)[C@H](O[C@]3(C(=O)O)C[C@H](O)[C@@H](NC(C)=O)[C@H]([C@H](O)[C@H](O)CO)O3)[C@H]2O)[C@H](O[C@@H]2O[C@@H](C)[C@@H](O)[C@@H](O)[C@@H]2O)[C@H]1NC(C)=O`, the Kd in experiment [3] was 738 µM. Besides, the IC50 in experiment [2] was at least 7000 µM. For the molecule `CC[C@H]1C(C(=O)NCCCc2cn(CCCC(=O)Nc3cc(S(=O)(=O)O)cc4cc(S(=O)(=O)O)cc(S(=O)(=O)O)c34)nn2)CC[C@@H](O[C@@H]2O[C@H](CO)[C@H](O)[C@H](O[C@@H](CC3CCCCC3)C(=O)O)[C@H]2OC(=O)c2ccccc2)[C@@H]1O[C@@H]1O[C@@H](C)[C@@H](O)[C@@H](O)[C@@H]1O` (stereo partly drawn), the IC50 in experiment [2] was 82 µM. In the case of `CC[C@H]1C(C(=O)NCCCc2cn(CCCCC(=O)Nc3cc(S(=O)(=O)O)cc4cc(S(=O)(=O)O)cc(S(=O)(=O)O)c34)nn2)CC[C@@H](O[C@@H]2O[C@H](CO)[C@H](O)[C@H](O[C@@H](CC3CCCCC3)C(=O)O)[C@H]2OC(=O)c2ccccc2)[C@@H]1O[C@@H]1O[C@@H](C)[C@@H](O)[C@@H](O)[C@@H]1O` (stereo partly drawn), the concentration for half-maximal inhibition (IC50) in experiment [2] is 210 µM.

The record behind these values is ChEMBL document CHEMBL5579814, “Analogues of the pan-selectin antagonist rivipansel (GMI-1070)” (Eur J Med Chem, 2024).
